According to the supplement of paper PMC5908809:

What was measured:
[1] = test system: normal NK cells expanded with K562-aAPC; assay: percent inhibition of viability; higher = more inhibition; conditions: 72 h, IL-2 2.5 ng/mL
Experimental: (§1)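 Drug sensitivity and resistance testing on K562-aAPC-expanded normal NK cells: 5 concentrations (10-fold steps over a 10,000-fold range), 72 h at 37 °C, viability by CellTiter-Glo normalised to DMSO and benzethonium chloride controls; DSS from the fitted curve.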

KAI3 (IL-2 2.5 ng/mL) [2] = assay: as above; conditions: 72 h
NK-92 (IL-2 2.5 ng/mL) [3] = assay: as above; conditions: 72 h
DERL-7 (IL-2 2.5 ng/mL) [4] = assay: as above; conditions: 72 h
[5] = test system: normal primary NK cells, pool 1 (3 donors), resting (IL-2 0 ng/mL); assay: as above; conditions: 72 h
NKL (IL-2 2.5 ng/mL) [6] = assay: as above; conditions: 72 h
[7] = test system: normal primary NK cells, pool 3 (3 donors) (IL-2 2.5 ng/mL); assay: as above; conditions: 72 h
SNK-6 (IL-2 2.5 ng/mL) [8] = assay: as above; conditions: 72 h
[9] = test system: normal primary NK cells, pool 2 (3 donors) (IL-2 2.5 ng/mL); assay: as above; conditions: 72 h
[10] = test system: normal primary NK cells, pool 1 (3 donors) (IL-2 2.5 ng/mL); assay: as above; conditions: 72 h
YT (IL-2 2.5 ng/mL) [11] = assay: as above; conditions: 72 h
IMC-1 (IL-2 20 ng/mL) [12] = assay: as above; conditions: 72 h
KHYG-1 (IL-2 2.5 ng/mL) [13] = assay: as above; conditions: 72 h
NK-YS (IL-2 2.5 ng/mL) [14] = assay: as above; conditions: 72 h
KAI3 (IL-2 2.5 ng/mL) [15] = assay: drug sensitivity score (DSS) (DSS units); higher = more sensitive; extreme values may be limits of the assay; conditions: 72 h
NK-92 (IL-2 2.5 ng/mL) [16] = assay: as above; conditions: 72 h
DERL-7 (IL-2 2.5 ng/mL) [17] = assay: as above; conditions: 72 h
[18] = test system: normal primary NK cells, pool 1 (3 donors), resting (IL-2 0 ng/mL); assay: as above; conditions: 72 h
NKL (IL-2 2.5 ng/mL) [19] = assay: as above; conditions: 72 h
[20] = test system: normal primary NK cells, pool 3 (3 donors) (IL-2 2.5 ng/mL); assay: as above; conditions: 72 h
SNK-6 (IL-2 2.5 ng/mL) [21] = assay: as above; conditions: 72 h
[22] = test system: normal primary NK cells, pool 2 (3 donors) (IL-2 2.5 ng/mL); assay: as above; conditions: 72 h
[23] = test system: normal primary NK cells, pool 1 (3 donors) (IL-2 2.5 ng/mL); assay: as above; conditions: 72 h
YT (IL-2 2.5 ng/mL) [24] = assay: as above; conditions: 72 h
IMC-1 (IL-2 20 ng/mL) [25] = assay: as above; conditions: 72 h
KHYG-1 (IL-2 2.5 ng/mL) [26] = assay: as above; conditions: 72 h
NK-YS (IL-2 2.5 ng/mL) [27] = assay: as above; conditions: 72 h
[28] = test system: normal NK cells expanded with K562-aAPC; assay: as above; conditions: 72 h; IL-2 2.5 ng/mL
Experimental: as §1

CNC(=O)c1cc(Oc2ccc(NC(=O)Nc3cc(C(C)(C)C)nn3-c3ccc4ncccc4c3)c(F)c2)ccn1 [Rebastinib] (max concentration tested 1000 nM)
percent inhibition of viability [%]
Conditions | 0.1 nM | 1 nM | 10 nM | 100 nM | 1000 nM
DERL-7 (IL-2 2.5 ng/mL) [4] | -4.96 | 1.69 | -0.5 | -4.52 | -8.09
IMC-1 (IL-2 20 ng/mL) [12] | 0.93 | 7.15 | -1.23 | 1.86 | -6.19
KAI3 (IL-2 2.5 ng/mL) [2] | 7.99 | 9.63 | 10.5 | 5.1 | -6.78
KHYG-1 (IL-2 2.5 ng/mL) [13] | -2.88 | -0.08 | 0.01 | -1.2 | -8.03
NK-92 (IL-2 2.5 ng/mL) [3] | -1.88 | 1.51 | -1.48 | 0.06 | -12.8
NK-YS (IL-2 2.5 ng/mL) [14] | -1.58 | -3.98 | -0.95 | 1.01 | 2.92
NKL (IL-2 2.5 ng/mL) [6] | -2.2 | -3.91 | -1.3 | 8.69 | 5.2
SNK-6 (IL-2 2.5 ng/mL) [8] | 7.77 | 13.4 | -14.2 | 1.04 | -59.9
YT (IL-2 2.5 ng/mL) [11] | -4.61 | -3.15 | -0.26 | 1.61 | -0.37
[1] | -1.77 | -3.86 | -0.78 | -3.03 | -4.18
[5] | -11.2 | -7.34 | -6.2 | -15.4 | 1.95
[7] | -9.69 | -6.19 | -1.5 | -11 | -8.81
[9] | -4.03 | -4.97 | -4.4 | -1.73 | -9.3
[10] | -3.76 | -8.51 | -9.53 | -4.2 | -12.7

Conditions | drug sensitivity score
DERL-7 (IL-2 2.5 ng/mL) [17] | 0
IMC-1 (IL-2 20 ng/mL) [25] | 0
KAI3 (IL-2 2.5 ng/mL) [15] | 0
KHYG-1 (IL-2 2.5 ng/mL) [26] | 0
NK-92 (IL-2 2.5 ng/mL) [16] | 0
NK-YS (IL-2 2.5 ng/mL) [27] | 0
NKL (IL-2 2.5 ng/mL) [19] | 0
SNK-6 (IL-2 2.5 ng/mL) [21] | 0
YT (IL-2 2.5 ng/mL) [24] | 0
[18] | 0
[20] | 0
[22] | 0
[23] | 0
[28] | 0

O=C(O)CC1CC(c2ccccc2)=NO1 (stereo not drawn) [VGX-1027] (max concentration tested 10000 nM)
percent inhibition of viability [%]
Conditions | 1 nM | 10 nM | 100 nM | 1000 nM | 10000 nM
DERL-7 (IL-2 2.5 ng/mL) [4] | 0.25 | -1.69 | -4.26 | -3.18 | -6.46
IMC-1 (IL-2 20 ng/mL) [12] | 0.5 | 0.17 | 6.38 | 5.66 | 15.5
KAI3 (IL-2 2.5 ng/mL) [2] | -6.5 | -1.11 | 1.3 | 12.6 | 35.1
KHYG-1 (IL-2 2.5 ng/mL) [13] | 0.61 | -5.96 | -1.03 | 3.73 | 20
NK-92 (IL-2 2.5 ng/mL) [3] | -3.95 | -4.08 | -2.12 | 11.7 | 26.6
NK-YS (IL-2 2.5 ng/mL) [14] | -1.78 | -5.47 | 0.49 | 4.16 | 16.7
NKL (IL-2 2.5 ng/mL) [6] | -7.13 | -10.2 | 1.01 | 15.5 | 23.6
SNK-6 (IL-2 2.5 ng/mL) [8] | -0.72 | -26.7 | -22.3 | -7.03 | 3.07
YT (IL-2 2.5 ng/mL) [11] | -2.93 | -7 | -1.39 | 5.41 | 20.1
[1] | -7.12 | -7.03 | 0.76 | 6.38 | 14.7
[5] | 3.76 | 20.2 | 15.6 | 10.9 | 5.12
[7] | -13.4 | 4.04 | 5.21 | 2.93 | 6.93
[9] | -4.95 | 7.51 | 2.82 | 7.55 | 7.46
[10] | -3.12 | 16.9 | 11.2 | 17.1 | 11.4

Conditions | drug sensitivity score
DERL-7 (IL-2 2.5 ng/mL) [17] | 0
IMC-1 (IL-2 20 ng/mL) [25] | 0.28
KAI3 (IL-2 2.5 ng/mL) [15] | 3.28
KHYG-1 (IL-2 2.5 ng/mL) [26] | 1.09
NK-92 (IL-2 2.5 ng/mL) [16] | 2.51
NK-YS (IL-2 2.5 ng/mL) [27] | 0.79
NKL (IL-2 2.5 ng/mL) [19] | 2.41
SNK-6 (IL-2 2.5 ng/mL) [21] | 0
YT (IL-2 2.5 ng/mL) [24] | 1.27
[18] | 0
[20] | 0
[22] | 0
[23] | 4.99
[28] | 0.56
